BigSolDB 2.1

COc1cc(C2Oc3cc(C4Oc5cc(O)cc(O)c5C(=O)C4O)ccc3OC2CO)ccc1O (stereo not given)
Settings | solubility (mole fraction)
in PEG-400, 298.15 K | 0.24
in PEG-400, 303.15 K | 0.26
in PEG-400, 313.15 K | 0.29
in PEG-400, 323.15 K | 0.34
in PEG-400, 333.15 K | 0.38

solubility (mole fraction)
Settings | 298.15 K | 303.15 K | 313.15 K | 323.15 K | 333.15 K
in ethanol | 0.0167 | 0.0174 | 0.0193 | 0.0208 | 0.0227
in isopropanol | 0.00448 | 0.00477 | 0.00524 | 0.00593 | 0.00662
in water | 1.46e-05 | 1.68e-05 | 2.09e-05 | 2.54e-05 | 3.06e-05
